# Reference: US11739078B2, “Methods of inhibiting kinases” (INSILICO MEDICINE IP LIMITED, priority 2019, dated 2023)
# Like-named read-outs stand apart in the source and are kept apart here.
# What was measured:
# [1] = system: collagen type 1 alpha 1 (COL1A1) mRNA expression; test: Collagen production assay (COL1A1 mRNA expression); format: cell-based
# Procedure: HDF/TERT166 working lot cells can be thawed from liquid nitrogen and expanded using standard conditions (Medium: DMEM/Ham's F12 basal medium supplemented with 1× GlutaMax-I and 10% FBS without antibiotics; 37° C. 5% CO2). For performing the treatment, cells can be seeded at a cell density of 7500 cells/cm^2 in 12-well plates the day before the first treatment. Cells can be seeded in starvation medium (DMEM/Ham's F12 basal medium supplemented with 1× GlutaMax-I and 0.5% FBS without antibiotics). Approximately 24 hours after seeding the substances can be dissolved in DMSO (stocks: 10 mM) and diluted in starvation medium to a final concentration of 10 μM. Half of this working dilution can be supplemented with 100 pg/mL TGFbeta. For each substance, two wells can be treated with a 10 μM concentration of the substance and a 10 μM concentration supplemented with 100 pg/mL TGF-beta. In parallel, cells can be treated with 100 pg/mL TGF-beta alone. Cells in starvation medium can serve as a control. For all cells treatment can be done by performing a medium exchange. […]
# RNA extraction can be performed with 200 μL Chloroform, and phase separation can be achieved by centrifugation for 15 min at 12,000 g at 4° C. […] RNA concentration can be determined spectrophotometrically with a Nanodrop instrument. […]
# [2] = molecular target: MAP4K4 (h) (Homo sapiens (Human), UniProt O95819); test: MAP4K4 in vitro kinase assay (radiometric); format: biochemical; conditions: read-out: MAP4K4_IC50
# Procedure: (§1) (specific activity and concentration as required). The reaction is initiated by the addition of the Mg/ATP mix. After incubation for 40 minutes at room temperature, the reaction is stopped by the addition of phosphoric acid to a concentration of 0.5%.
# [3] = molecular target: TNIK (Homo sapiens (Human), UniProt Q9UKE5); test: TNIK enzymatic assay (radiometric kinase inhibition); format: biochemical
# Procedure: as §1, with “The compounds were studied for function as TNIK inhibitors to generate the data of Table 1. […] (specific” for “(specific”
# [4] = system: Human hepatic stellate cell LX-2; test: LX-2 fibrosis assay, collagen production; format: cell-based; conditions: Homo sapiens, LX-2, 48 h, LX-2 cells stimulated with 4 ng/mL TGF-b for 48 hours, Western blot
# Procedure: Human hepatic stellate cell LX-2 were grown in DMEM (Invitrogen, 11960) supplied with 1% MEM Non-Essential Amino Acids (Invitrogen, 11140-050), 2% fetal bovine serum (Hyclone, SV30087.03), Penicillin (100 U/mL)-streptomycin (100 μg/mL) (Millipore, TMS-AB2-C) and 2 mM L-Glutamine (Invitrogen, 25030-001). After the cells grew in 12-well plates for 24 hours, the cell culture medium was changed to the same as above except using 0.4% fetal bovine serum. After 20 hour growth in the reduced serum medium, the cells were treated with indicated doses of compounds for 30 minutes. Subsequently, the cells were stimulated with 4 ng/mL TGF-b (R&D Systems, 240-B-002) for 48 hours. The cells were rinsed twice with DPBS before being harvested with 100 μL RIPA buffer (Sigma, R10278) supplemented with protease inhibitor cocktail (Roche, 04693132001) at 4° C. The total protein in each sample was quantified using BCA Protein Assay Kit (Pierce™, 23227) and equal amount of total protein of each sample was subject to Western blot analysis. Antibodies used were mouse anti-α-Actin (SPM332) ([…]), mouse anti-CTGF (E5) ([…]), and mouse anti-collagen α1 (3G3) (sc-293182), from Santa Cruz Biotechnologies; and mouse anti-GAPDH (6C5) (EMD Millipore, MAB374).
# [5] = TNIK enzymatic assay, Table 1, read-out: IC50
# Chain of MAP4K4 (h) (O95819 whole entry): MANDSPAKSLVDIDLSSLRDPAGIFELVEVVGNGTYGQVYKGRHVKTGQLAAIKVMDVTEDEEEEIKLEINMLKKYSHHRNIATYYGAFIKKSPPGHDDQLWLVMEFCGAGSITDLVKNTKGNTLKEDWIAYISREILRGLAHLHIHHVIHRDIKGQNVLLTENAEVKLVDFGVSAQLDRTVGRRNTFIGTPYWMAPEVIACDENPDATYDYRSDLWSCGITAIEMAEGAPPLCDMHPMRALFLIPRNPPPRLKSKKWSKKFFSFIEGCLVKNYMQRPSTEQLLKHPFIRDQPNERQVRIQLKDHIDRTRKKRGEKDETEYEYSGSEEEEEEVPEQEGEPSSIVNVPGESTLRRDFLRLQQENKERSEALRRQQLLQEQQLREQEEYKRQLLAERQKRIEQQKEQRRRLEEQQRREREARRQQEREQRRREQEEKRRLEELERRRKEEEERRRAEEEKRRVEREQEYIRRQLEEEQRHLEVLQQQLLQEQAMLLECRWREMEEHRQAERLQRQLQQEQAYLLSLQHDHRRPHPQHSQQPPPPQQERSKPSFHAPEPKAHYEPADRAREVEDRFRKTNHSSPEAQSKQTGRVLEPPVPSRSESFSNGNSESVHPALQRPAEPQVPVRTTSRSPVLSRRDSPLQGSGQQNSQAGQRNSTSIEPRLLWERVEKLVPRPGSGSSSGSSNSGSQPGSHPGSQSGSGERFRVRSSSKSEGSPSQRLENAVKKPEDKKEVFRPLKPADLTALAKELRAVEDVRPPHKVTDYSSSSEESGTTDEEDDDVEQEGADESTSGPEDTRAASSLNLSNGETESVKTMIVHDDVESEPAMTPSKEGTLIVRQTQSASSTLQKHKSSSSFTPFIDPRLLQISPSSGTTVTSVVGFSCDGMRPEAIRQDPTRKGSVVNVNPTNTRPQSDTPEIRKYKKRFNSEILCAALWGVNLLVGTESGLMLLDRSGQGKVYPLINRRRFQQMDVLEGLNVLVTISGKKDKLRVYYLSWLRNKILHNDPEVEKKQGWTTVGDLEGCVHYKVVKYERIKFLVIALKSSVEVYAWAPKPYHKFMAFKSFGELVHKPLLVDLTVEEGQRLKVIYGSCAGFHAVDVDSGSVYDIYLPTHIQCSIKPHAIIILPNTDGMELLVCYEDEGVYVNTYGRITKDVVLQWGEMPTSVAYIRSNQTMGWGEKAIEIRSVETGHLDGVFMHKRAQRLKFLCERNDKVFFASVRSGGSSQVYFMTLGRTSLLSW
# Chain of TNIK (Q9UKE5 whole entry): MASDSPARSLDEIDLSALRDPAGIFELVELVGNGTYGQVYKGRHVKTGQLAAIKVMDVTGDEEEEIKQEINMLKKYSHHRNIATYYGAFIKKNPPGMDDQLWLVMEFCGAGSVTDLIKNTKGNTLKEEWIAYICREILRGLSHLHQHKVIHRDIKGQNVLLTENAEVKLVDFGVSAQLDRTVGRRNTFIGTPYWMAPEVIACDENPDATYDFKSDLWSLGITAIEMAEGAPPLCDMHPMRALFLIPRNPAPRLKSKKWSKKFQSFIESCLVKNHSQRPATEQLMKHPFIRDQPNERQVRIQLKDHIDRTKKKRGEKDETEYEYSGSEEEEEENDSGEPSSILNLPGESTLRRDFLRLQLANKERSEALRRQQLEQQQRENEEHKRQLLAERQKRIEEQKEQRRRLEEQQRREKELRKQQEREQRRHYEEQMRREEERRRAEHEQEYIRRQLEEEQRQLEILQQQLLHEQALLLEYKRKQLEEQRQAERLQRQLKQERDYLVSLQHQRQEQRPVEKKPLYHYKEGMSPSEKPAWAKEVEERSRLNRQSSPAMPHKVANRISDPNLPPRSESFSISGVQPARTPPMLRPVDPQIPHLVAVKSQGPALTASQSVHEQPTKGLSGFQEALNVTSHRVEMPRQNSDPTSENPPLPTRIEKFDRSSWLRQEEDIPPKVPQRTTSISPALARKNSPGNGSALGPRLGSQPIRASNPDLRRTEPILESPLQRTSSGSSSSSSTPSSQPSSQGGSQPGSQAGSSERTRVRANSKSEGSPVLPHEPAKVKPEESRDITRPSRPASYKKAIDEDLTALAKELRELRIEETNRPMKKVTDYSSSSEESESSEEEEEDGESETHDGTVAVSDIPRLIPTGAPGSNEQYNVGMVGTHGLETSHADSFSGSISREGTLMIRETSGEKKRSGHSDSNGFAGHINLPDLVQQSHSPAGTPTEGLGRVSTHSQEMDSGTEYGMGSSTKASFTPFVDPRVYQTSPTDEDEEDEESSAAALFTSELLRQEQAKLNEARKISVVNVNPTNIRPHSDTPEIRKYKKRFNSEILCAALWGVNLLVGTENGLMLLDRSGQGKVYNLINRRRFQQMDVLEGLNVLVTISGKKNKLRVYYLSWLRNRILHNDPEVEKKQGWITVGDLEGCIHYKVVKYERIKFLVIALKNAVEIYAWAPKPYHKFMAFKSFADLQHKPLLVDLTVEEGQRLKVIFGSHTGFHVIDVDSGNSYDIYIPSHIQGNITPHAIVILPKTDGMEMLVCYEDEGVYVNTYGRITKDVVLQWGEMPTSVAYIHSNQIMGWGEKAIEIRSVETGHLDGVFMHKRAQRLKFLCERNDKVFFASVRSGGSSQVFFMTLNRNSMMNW
IC50 [2],"IC50 [3, 5]",IC50 ([3]; read-out: TNIK_IC50),EC50 [4],Compound,collagen type 1 alpha 1 (COL1A1) mRNA expression [1],effect of TGF-beta treatment on the COL1A1 mRNA expression ([1]; with TGF-beta treatment)
,,,,"CC(=O)Nc1ccc(C(=O)Nc2sc(Nc3ccccc3)nc2C(N)=O)cc1 [5-(4-acetamidobenzamido)-2-(phenylamino)-1,3-thiazole-4-carboxamide]",decreased,inhibited
142 nM,25 nM,25.1 nM,1.14 µM,"O=C(Nc1ccccc1F)c1ccc(-c2c(-c3ccc(F)cc3)ncn2C2CCOC2)o1 (stereo not shown) [Compound 86, N-(2-fluorophenyl)-5-(4-(4-fluorophenyl)-1-(tetrahydrofuran-3-yl)-1H-imidazol-5-yl)furan-2-carboxamide]",,
64 nM,,93 nM,0.424 µM,"O=C(Nc1ccncc1F)c1ccc(-c2c(-c3ccc(F)cc3)ncn2[C@@H]2CC[C@H](O)C2)o1 (racemic) [Compound A-62, rac-5-(4-(4-fluorophenyl)-1-((1R,3 S)-3-hydroxycyclopentyl)-1H-imidazol-5-yl)-N-(3-fluoropyridin-4-yl)furan-2-carboxamide]",,
1200 nM,251 nM,251 nM,2.01 µM,"O=C(Nc1ccccc1F)c1ccc(-c2c(-c3ccc(F)cc3)ncn2C2CCNC2)o1 (stereo not shown) [Compound 85, N-(2-fluorophenyl)-5-(4-(4-fluorophenyl)-1-(pyrrolidin-3-yl)-1H-imidazol-5-yl)furan-2-carboxamide]",,
